Measured values as given in paper PMC2151519 (The Journal of General Physiology, 2006).

Assays:
Test in all cases: whole-cell patch clamp, outward current, CHO-K1
Assay type in all cases: cell-based
TRPM7 = TRPM7 (Mus musculus, UniProt Q923J1)
TRPM6/7 = TRPM6/7 (Homo sapiens; Mus musculus, UniProt Q923J1+Q9BX84)
TRPM6 = TRPM6 (Homo sapiens, UniProt Q9BX84)
TRPM6, sequence (Q9BX84 whole entry): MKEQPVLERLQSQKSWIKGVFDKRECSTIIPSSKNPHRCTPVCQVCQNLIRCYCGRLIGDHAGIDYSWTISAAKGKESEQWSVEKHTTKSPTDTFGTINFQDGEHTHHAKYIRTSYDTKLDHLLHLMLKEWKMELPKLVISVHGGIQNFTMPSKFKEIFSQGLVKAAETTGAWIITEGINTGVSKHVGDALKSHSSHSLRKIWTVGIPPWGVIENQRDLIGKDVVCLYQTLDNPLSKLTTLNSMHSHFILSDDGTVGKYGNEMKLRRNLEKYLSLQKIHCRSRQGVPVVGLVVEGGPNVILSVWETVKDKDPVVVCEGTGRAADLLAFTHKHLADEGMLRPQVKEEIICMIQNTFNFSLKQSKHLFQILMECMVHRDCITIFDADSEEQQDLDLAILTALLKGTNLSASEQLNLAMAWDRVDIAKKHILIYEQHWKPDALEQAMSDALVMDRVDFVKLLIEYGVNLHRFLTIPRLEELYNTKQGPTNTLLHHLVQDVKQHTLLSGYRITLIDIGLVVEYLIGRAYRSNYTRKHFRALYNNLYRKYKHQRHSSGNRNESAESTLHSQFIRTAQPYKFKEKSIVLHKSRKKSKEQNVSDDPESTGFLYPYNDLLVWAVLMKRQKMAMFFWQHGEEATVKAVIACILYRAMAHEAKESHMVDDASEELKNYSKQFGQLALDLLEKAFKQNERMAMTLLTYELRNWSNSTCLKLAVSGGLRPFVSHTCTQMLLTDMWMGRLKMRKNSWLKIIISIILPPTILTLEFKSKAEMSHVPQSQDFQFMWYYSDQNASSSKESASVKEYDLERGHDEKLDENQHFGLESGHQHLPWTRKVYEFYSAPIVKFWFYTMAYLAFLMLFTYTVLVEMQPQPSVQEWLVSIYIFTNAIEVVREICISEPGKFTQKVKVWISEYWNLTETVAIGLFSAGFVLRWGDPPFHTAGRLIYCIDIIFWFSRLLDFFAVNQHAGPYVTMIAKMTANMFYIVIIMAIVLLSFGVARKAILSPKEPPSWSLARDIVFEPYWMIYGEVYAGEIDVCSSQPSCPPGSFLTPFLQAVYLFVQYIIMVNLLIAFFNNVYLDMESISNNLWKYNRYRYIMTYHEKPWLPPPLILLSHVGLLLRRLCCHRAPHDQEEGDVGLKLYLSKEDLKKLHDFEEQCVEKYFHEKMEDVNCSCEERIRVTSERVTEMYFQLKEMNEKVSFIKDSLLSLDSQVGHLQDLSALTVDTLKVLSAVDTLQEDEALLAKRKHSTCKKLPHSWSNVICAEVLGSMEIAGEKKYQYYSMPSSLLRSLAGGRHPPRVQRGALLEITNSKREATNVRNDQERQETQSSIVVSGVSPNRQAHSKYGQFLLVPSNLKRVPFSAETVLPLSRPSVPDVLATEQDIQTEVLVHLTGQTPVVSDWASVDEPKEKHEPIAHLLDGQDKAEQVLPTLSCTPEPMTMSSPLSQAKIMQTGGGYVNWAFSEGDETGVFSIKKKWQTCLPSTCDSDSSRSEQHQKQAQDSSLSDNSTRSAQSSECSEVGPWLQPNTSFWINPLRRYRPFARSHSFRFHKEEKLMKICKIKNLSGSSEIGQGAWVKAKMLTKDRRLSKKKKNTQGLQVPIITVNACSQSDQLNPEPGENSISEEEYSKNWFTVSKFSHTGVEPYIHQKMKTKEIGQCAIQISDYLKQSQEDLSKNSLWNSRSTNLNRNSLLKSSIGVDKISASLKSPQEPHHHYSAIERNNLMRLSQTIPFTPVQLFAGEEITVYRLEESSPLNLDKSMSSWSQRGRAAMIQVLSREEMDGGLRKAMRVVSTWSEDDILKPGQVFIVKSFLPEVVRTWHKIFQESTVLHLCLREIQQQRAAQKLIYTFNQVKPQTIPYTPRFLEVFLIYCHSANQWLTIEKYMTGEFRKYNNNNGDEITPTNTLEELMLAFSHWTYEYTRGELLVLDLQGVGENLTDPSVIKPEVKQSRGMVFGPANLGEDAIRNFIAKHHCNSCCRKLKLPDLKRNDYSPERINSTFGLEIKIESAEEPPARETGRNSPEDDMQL

TRPM7, sequence (Q923J1 whole entry): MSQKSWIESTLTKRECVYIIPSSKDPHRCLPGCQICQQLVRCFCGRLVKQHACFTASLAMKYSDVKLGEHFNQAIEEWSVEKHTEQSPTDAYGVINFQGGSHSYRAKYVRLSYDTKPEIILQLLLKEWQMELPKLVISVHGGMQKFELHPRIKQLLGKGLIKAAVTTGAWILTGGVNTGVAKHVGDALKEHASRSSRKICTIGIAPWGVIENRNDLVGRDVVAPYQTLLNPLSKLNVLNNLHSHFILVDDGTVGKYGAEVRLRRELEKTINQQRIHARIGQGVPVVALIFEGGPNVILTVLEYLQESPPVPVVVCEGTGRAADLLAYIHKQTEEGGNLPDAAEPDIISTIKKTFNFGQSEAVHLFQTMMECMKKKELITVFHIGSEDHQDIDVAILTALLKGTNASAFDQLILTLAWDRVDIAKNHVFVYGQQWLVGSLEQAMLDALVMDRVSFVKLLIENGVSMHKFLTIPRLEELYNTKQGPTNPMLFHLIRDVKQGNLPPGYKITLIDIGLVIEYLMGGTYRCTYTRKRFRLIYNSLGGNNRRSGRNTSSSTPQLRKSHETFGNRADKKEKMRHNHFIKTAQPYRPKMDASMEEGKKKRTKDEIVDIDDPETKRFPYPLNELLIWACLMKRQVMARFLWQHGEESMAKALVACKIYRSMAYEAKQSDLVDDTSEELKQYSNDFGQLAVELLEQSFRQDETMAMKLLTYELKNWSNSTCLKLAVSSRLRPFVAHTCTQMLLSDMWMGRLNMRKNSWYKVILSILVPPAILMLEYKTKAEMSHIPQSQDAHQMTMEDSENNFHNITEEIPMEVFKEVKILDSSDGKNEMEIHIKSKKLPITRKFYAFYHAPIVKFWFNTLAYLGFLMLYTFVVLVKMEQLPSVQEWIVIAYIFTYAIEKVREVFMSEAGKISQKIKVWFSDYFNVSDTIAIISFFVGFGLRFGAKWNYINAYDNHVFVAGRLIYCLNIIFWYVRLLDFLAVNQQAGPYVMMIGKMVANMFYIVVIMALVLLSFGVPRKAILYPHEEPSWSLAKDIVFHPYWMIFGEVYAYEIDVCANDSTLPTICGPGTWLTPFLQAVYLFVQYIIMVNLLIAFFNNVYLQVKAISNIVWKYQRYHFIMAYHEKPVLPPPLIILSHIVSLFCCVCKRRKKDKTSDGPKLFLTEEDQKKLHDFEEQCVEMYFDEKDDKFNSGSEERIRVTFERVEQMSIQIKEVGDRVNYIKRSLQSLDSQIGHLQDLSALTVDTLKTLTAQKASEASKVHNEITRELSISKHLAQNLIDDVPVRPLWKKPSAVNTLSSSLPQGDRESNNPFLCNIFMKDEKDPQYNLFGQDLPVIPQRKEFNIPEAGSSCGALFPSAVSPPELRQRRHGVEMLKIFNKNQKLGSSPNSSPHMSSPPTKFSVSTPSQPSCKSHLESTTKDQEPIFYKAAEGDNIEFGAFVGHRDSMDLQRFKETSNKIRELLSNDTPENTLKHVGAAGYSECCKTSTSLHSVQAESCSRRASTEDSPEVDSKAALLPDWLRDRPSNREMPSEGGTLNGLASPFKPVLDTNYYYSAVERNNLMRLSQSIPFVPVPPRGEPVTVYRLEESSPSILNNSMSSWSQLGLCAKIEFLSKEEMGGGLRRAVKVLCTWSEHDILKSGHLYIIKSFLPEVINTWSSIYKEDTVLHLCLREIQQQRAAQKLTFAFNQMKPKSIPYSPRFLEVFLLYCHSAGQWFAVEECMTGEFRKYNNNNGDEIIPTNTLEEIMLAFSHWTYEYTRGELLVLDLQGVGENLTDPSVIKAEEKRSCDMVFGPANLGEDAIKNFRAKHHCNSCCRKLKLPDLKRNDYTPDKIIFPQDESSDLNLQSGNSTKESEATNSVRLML
TRPM6/7, sequence (Q9BX84 whole entry): as the sequence (Q9BX84 whole entry) above
TRPM6/7, sequence (Q923J1 whole entry): as the sequence (Q923J1 whole entry) above

IC50 (TRPM7): 178 ± 14 µM | EC50 (TRPM6/7): 1600 ± 100 µM | EC50 (TRPM6): 205 ± 10 µM
Compound: NCCOB(c1ccccc1)c1ccccc1 [2-APB]
